# Laboratory results reported in patent publication US5389627A, “Cephem compounds” (priority 1993, dated 1995).
# Tests used:
# [1] = test system: P.aeruginosa C2027; assay: In vitro antibacterial activity, minimum inhibitory concentration; assay type: cell-based; details: Pseudomonas aeruginosa; P.aeruginosa C2027; read-out: Minimum Inhibitory Concentration (MIC)
# Description: (§1) As reference compounds, Cefotaxime (CTX), Ceftazidime (CAZ) and Cefpirome (CPR) were employed.
# [2] = test system: K.pneumoniae ATCC10031; assay: as above; assay type: cell-based; details: Klebsiella pneumoniae; K.pneumoniae ATCC10031; read-out: Minimum Inhibitory Concentration (MIC)
# Description: as §1
# [3] = test system: S.aureus C4036; assay: as above; assay type: cell-based; details: Staphylococcus aureus; S.aureus C4036; read-out: Minimum Inhibitory Concentration (MIC)
# Description: as §1
# [4] = test system: E.cloacae C4008; assay: as above; assay type: cell-based; details: Enterobacter cloacae; E.cloacae C4008; read-out: Minimum Inhibitory Concentration (MIC)
# Description: as §1
# [5] = test system: P.rettgeri ATCC9919; assay: as above; assay type: cell-based; details: Providencia rettgeri; P.rettgeri ATCC9919; read-out: Minimum Inhibitory Concentration (MIC)
# Description: as §1
# [6] = test system: P.aeruginosa C4070; assay: as above; assay type: cell-based; details: Pseudomonas aeruginosa; P.aeruginosa C4070; read-out: Minimum Inhibitory Concentration (MIC)
# Description: as §1
# [7] = test system: P.aeruginosa ATCC10145; assay: as above; assay type: cell-based; details: Pseudomonas aeruginosa; P.aeruginosa ATCC10145; read-out: Minimum Inhibitory Concentration (MIC)
# Description: as §1
# [8] = test system: E.cloacae C4009; assay: as above; assay type: cell-based; details: Enterobacter cloacae; E.cloacae C4009; read-out: Minimum Inhibitory Concentration (MIC)
# Description: as §1
# [9] = test system: E.coli ATCC10536; assay: as above; assay type: cell-based; details: Escherichia coli; E.coli ATCC10536; read-out: Minimum Inhibitory Concentration (MIC)
# Description: as §1
# [10] = test system: S.pyogenes C4003; assay: as above; assay type: cell-based; details: Streptococcus pyogenes; S.pyogenes C4003; read-out: Minimum Inhibitory Concentration (MIC)
# Description: as §1
# [11] = test system: E.coli ATCC25922; assay: as above; assay type: cell-based; details: Escherichia coli; E.coli ATCC25922; read-out: Minimum Inhibitory Concentration (MIC)
# Description: as §1
# [12] = test system: S.aureus ATCC29213; assay: as above; assay type: cell-based; details: Staphylococcus aureus; S.aureus ATCC29213; read-out: Minimum Inhibitory Concentration (MIC)
# Description: as §1
# [13] = test system: P.aeruginosa ATCC27853; assay: as above; assay type: cell-based; details: Pseudomonas aeruginosa; P.aeruginosa ATCC27853; read-out: Minimum Inhibitory Concentration (MIC)
# Description: as §1
# [14] = test system: S.typhimurium C4045; assay: as above; assay type: cell-based; details: Salmonella enterica; S.typhimurium C4045; read-out: Minimum Inhibitory Concentration (MIC)
# Description: as §1
# [15] = test system: S.aureus Smith; assay: as above; assay type: cell-based; details: Staphylococcus aureus; S.aureus Smith; read-out: Minimum Inhibitory Concentration (MIC)
# Description: as §1
# [16] = test system: S.marcescens C1052; assay: as above; assay type: cell-based; details: Serratia marcescens; S.marcescens C1052; read-out: Minimum Inhibitory Concentration (MIC)
# Description: as §1
# [17] = test system: E.coli C4002; assay: as above; assay type: cell-based; details: Escherichia coli; E.coli C4002; read-out: Minimum Inhibitory Concentration (MIC)
# Description: as §1
# [18] = test system: S.pyogenes ATCC 8668; assay: as above; assay type: cell-based; details: Streptococcus pyogenes, ATCC8668; S.pyogenes ATCC 8668; read-out: Minimum Inhibitory Concentration (MIC)
# Description: as §1
# [19] = test system: MRSA C2208; assay: as above; assay type: cell-based; details: Staphylococcus aureus; MRSA C2208; read-out: Minimum Inhibitory Concentration (MIC)
# Description: as §1
# [20] = test system: S.epidermidis ATCC12228; assay: as above; assay type: cell-based; details: Staphylococcus epidermidis; S.epidermidis ATCC12228; read-out: Minimum Inhibitory Concentration (MIC)
# Description: as §1
# [21] = test system: S.Faecalis ATCC29212; assay: as above; assay type: cell-based; details: Enterococcus faecalis
# Description: as §1
# [22] = test system: K.pneumoniae C1040; assay: as above; assay type: cell-based; details: Klebsiella pneumoniae; K.pneumoniae C1040; read-out: Minimum Inhibitory Concentration (MIC)
# Description: as §1
# [23] = test system: P.mirabilis ATCC25933; assay: as above; assay type: cell-based; details: Proteus mirabilis; P.mirabilis ATCC25933; read-out: Minimum Inhibitory Concentration (MIC)
# Description: as §1
# [24] = test system: K.oxytoca C4022; assay: as above; assay type: cell-based; details: Klebsiella oxytoca; K.oxytoca C4022; read-out: Minimum Inhibitory Concentration (MIC)
# Description: as §1
# [25] = test system: S.marcescens ATCC27117; assay: as above; assay type: cell-based; details: Serratia marcescens; S.marcescens ATCC27117; read-out: Minimum Inhibitory Concentration (MIC)
# Description: as §1
# [26] = Pharmacokinetics (plasma half-life); assay type: in vivo; details: SD Rat, mean value, read-out: Half-Life (T1/2)
# Protocol: In order to investigate the pharmacokinetics properties of the compounds according to the present invention, the plasma half-life was determined in accordance with the method described in Antimicrobial Agents and Chemotherapy, 26(2), p.
SMILES,MIC [1] [µg/mL],MIC [2] [µg/mL],MIC [3] [µg/mL],MIC [4] [µg/mL],MIC [5] [µg/mL],MIC [6] [µg/mL],MIC [7] [µg/mL],MIC [8] [µg/mL],MIC [9] [µg/mL],MIC [10] [µg/mL],MIC [11] [µg/mL],MIC [12] [µg/mL],MIC [13] [µg/mL],MIC [14] [µg/mL],MIC [15] [µg/mL],MIC [16] [µg/mL],MIC [17] [µg/mL],MIC [18] [µg/mL],MIC [19] [µg/mL],MIC [20] [µg/mL],further results
"CO/N=C(\C(=O)N[C@@H]1C(=O)N2C(C(=O)[O-])=C(C[n+]3cccc4c3CCC4)CS[C@H]12)c1csc(N)n1 [CPR, Cefpirome, reference compound]",0.39,0.013,0.39,0.013,0.013,6.25,6.25,0.013,0.013,0.007,0.05,0.78,3.13,0.025,0.39,0.05,0.05,0.007,> 100,0.2,MIC [21]: 50 µg/mL; MIC [22]: 0.025 µg/mL; MIC [23]: 0.05 µg/mL; MIC [24]: 1.56 µg/mL; MIC [25]: 0.05 µg/mL; half-life [26]: 19.5 min
"CO/N=C(\C(=O)N[C@@H]1C(=O)N2C(C(=O)[O-])=C(C[n+]3ccc4[nH]c(=O)[nH]c4c3)CS[C@H]12)c1nsc(N)n1 [Ex. 5, 7-β-[(Z)-2-(5-Amino-1,2,4-thiadiazol-3-yl)-2-methoxyiminoacetamido]-3-[2-(1H,3H)-oxo-imidazo[4,5-c]pyridiniummethyl]-3-cephem-4-carboxylate]",0.78,0.004,1.56,0.002,0.007,1.56,1.56,0.007,0.004,0.013,0.013,1.56,0.78,0.007,1.56,0.025,0.007,0.013,> 100,0.78,MIC [21]: > 100 µg/mL; MIC [22]: 0.004 µg/mL; MIC [23]: 0.025 µg/mL; MIC [24]: 0.78 µg/mL; MIC [25]: 0.007 µg/mL; half-life [26]: 24 min
"Nc1nc(/C(=N/OCC(=O)O)C(=O)N[C@@H]2C(=O)N3C(C(=O)[O-])=C(C[n+]4ccc5[nH]c(=O)[nH]c5c4)CS[C@H]23)ns1 [Ex. 8, 7-β-[(Z)-2-(5-Amino-1,2,4-thiadiazol-3-yl)-2-carboxymethoxyiminoacetamido]-3-[2-(1H,3H)-oxo-imidazo[4,5-c]pyridiniummethyl]-3-cephem-4-carboxylate]",3.13,0.013,1.56,0.013,0.025,6.25,3.13,0.013,0.013,0.196,0.05,0.78,3.13,0.05,3.13,0.2,3.13,0.1,> 100,1.56,MIC [21]: > 100 µg/mL; MIC [22]: 0.05 µg/mL; MIC [23]: 0.05 µg/mL; MIC [24]: 0.782 µg/mL; MIC [25]: 0.1 µg/mL
"CO/N=C(\C(=O)N[C@@H]1C(=O)N2C(C(=O)[O-])=C(C[n+]3ccc4c(c3)[nH]c(=O)n4C)CS[C@H]12)c1nsc(N)n1 [Ex. 6, 7-β-[(Z)-2-(5-Amino-1,2,4-thiadiazol-3-yl)-2-methoxyiminoacetamido]-3-[1-methyl-2-(3H)-oxo-imidazo[4,5-c]pyridiniummethyl]-3-cephem-4-carboxylate]",1.56,0.007,3.13,0.013,0.007,3.13,1.56,0.013,0.007,0.004,0.025,3.13,3.13,0.025,3.13,0.05,0.025,0.007,> 100,1.56,MIC [21]: > 100 µg/mL; MIC [22]: 0.007 µg/mL; MIC [23]: 0.025 µg/mL; MIC [24]: 1.56 µg/mL; MIC [25]: 0.025 µg/mL
"CO/N=C(\C(=O)N[C@@H]1C(=O)N2C(C(=O)O)=C(COC(C)=O)CS[C@H]12)c1csc(N)n1 [CTX, Cefotaxime, reference compound]",3.13,0.002,1.56,0.025,0.004,50,25,0.1,0.025,0.004,0.1,1.56,25,0.05,1.56,0.2,0.05,0.004,> 100,0.78,MIC [21]: > 100 µg/mL; MIC [22]: 0.025 µg/mL; MIC [23]: 0.025 µg/mL; MIC [24]: 0.78 µg/mL; MIC [25]: 0.1 µg/mL
